# ChEMBL document CHEMBL6134830, “Naturally inspired chimeric quinolone derivatives to reverse bacterial drug resistance” (Eur J Med Chem, 2025)
# How the values were obtained:
# Staphylococcus aureus [1] = assay: Antimicrobial activity against Staphylococcus aureus ATCC 25923 assessed as inhibition of bacterial growth measured after 20 hrs by CLSI protocol based Muller Hinton broth assay; assay type: functional
# [2] = Hemolytic activity in Sprague-Dawley rat Red blood cells at 200 ug/ml incubated for 1 hr by absorbance based analysis; assay type: toxicity, cell-based; conditions: erythrocyte, dose 200 µg/ml
# Staphylococcus aureus [3] = assay: Antimicrobial activity against Methicillin-resistant Staphylococcus aureus ATCC 43300 assessed as inhibition of bacterial growth measured after 20 hrs by CLSI protocol based Muller Hinton broth assay; assay type: functional
# Pseudomonas aeruginosa = assay: Antimicrobial activity against Pseudomonas aeruginosa ATCC 27853 assessed as inhibition of bacterial growth measured after 20 hrs by CLSI protocol based Muller Hinton broth assay; assay type: functional
# Acinetobacter baumannii = assay: Antimicrobial activity against Acinetobacter baumannii ATCC 19606 assessed as inhibition of bacterial growth measured after 20 hrs by CLSI protocol based Muller Hinton broth assay; assay type: functional
# Enterococcus faecalis = assay: Antimicrobial activity against Enterococcus faecalis ATCC 19433 assessed as inhibition of bacterial growth measured after 20 hrs by CLSI protocol based Muller Hinton broth assay; assay type: functional
# Enterococcus gallinarum = assay: Antimicrobial activity against Enterococcus gallinarum ATCC 49573 assessed as inhibition of bacterial growth measured after 20 hrs by CLSI protocol based Muller Hinton broth assay; assay type: functional
# Escherichia coli = assay: Antimicrobial activity against Escherichia coli ATCC 25922 assessed as inhibition of bacterial growth measured after 20 hrs by CLSI protocol based Muller Hinton broth assay; assay type: functional
MIC (Staphylococcus aureus [1]) [µg/mL],Compound,also measured
≥ 12.5,N=C(N)NCCC[C@H](N)C(=O)N1CCN(c2cc3c(cc2F)c(=O)c(C(=O)O)cn3C2CC2)CC1,
≥ 12.5,NCCCC[C@H](N)C(=O)N1CCN(c2cc3c(cc2F)c(=O)c(C(=O)O)cn3C2CC2)CC1,
6.25,CCCCCCCCCC(=O)N[C@@H](CCCCN)C(=O)N1CCN(c2cc3c(cc2F)c(=O)c(C(=O)O)cn3C2CC2)CC1,
25,CCCCCNC(=O)[C@H](CCCCN)NC(=O)c1ccc(C(=O)N2CCN(c3cc4c(cc3F)c(=O)c(C(=O)O)cn4C3CC3)CC2)cc1,
25,NCCCC[C@H](NC(=O)c1ccc(C(=O)N2CCN(c3cc4c(cc3F)c(=O)c(C(=O)O)cn4C3CC3)CC2)cc1)C(=O)NCc1c(F)cccc1Cl,
6.25,CCCCCCCCCNC(=O)[C@H](Cc1c[nH]cn1)NC(=O)[C@H](CCCCN)NC(=O)[C@H](CCCCN)NC(=O)c1ccc(C(=O)N2CCN(c3cc4c(cc3F)c(=O)c(C(=O)O)cn4C3CC3)CC2)cc1,
3.12,CCCCCCCCCNC(=O)[C@H](CCCNC(=N)N)NC(=O)[C@H](CCCCN)NC(=O)[C@H](CCCCN)NC(=O)c1ccc(C(=O)N2CCN(c3cc4c(cc3F)c(=O)c(C(=O)O)cn4C3CC3)CC2)cc1,
> 50,CCCCCCCCCNC(=O)[C@H](CCCNC(=N)N)NC(=O)[C@H](CCCNC(=N)N)NC(=O)[C@H](CCCNC(=N)N)NC(=O)c1ccc(C(=O)N2CCN(c3cc4c(cc3F)c(=O)c(C(=O)O)cn4C3CC3)CC2)cc1,
25,CCCCCCNC(=O)[C@H](CCCCN)NC(=O)c1ccc(C(=O)N2CCN(c3cc4c(cc3F)c(=O)c(C(=O)O)cn4C3CC3)CC2)cc1,
6.25,CCCCCCCCCCNC(=O)[C@H](CCCCN)NC(=O)[C@H](CCCCN)NC(=O)c1ccc(C(=O)N2CCN(c3cc4c(cc3F)c(=O)c(C(=O)O)cn4C3CC3)CC2)cc1,
25,CCCCCCCCCCCCCCNC(=O)[C@H](CCCCN)NC(=O)c1ccc(C(=O)N2CCN(c3cc4c(cc3F)c(=O)c(C(=O)O)cn4C3CC3)CC2)cc1,
25,NCCCC[C@H](NC(=O)c1ccc(C(=O)N2CCN(c3cc4c(cc3F)c(=O)c(C(=O)O)cn4C3CC3)CC2)cc1)C(=O)NCc1ccccc1,
3.12,CCCCCCCCCNC(=O)[C@H](CCCCN)NC(=O)[C@H](CCCCN)NC(=O)[C@H](CCCNC(=N)N)NC(=O)c1ccc(C(=O)N2CCN(c3cc4c(cc3F)c(=O)c(C(=O)O)cn4C3CC3)CC2)cc1,
6.25,CCCCCCCCCCCCNC(=O)[C@H](CCCCN)NC(=O)[C@H](CCCCN)NC(=O)[C@H](CCCCN)NC(=O)c1ccc(C(=O)N2CCN(c3cc4c(cc3F)c(=O)c(C(=O)O)cn4C3CC3)CC2)cc1,
6.25,CCCCCCCCCCCCNC(=O)[C@H](CCCCN)NC(=O)[C@H](CCCCN)NC(=O)[C@H](CCCCN)NC(=O)CCNC(=O)CCNC(=O)CCC(=O)N1CCN(c2cc3c(cc2F)c(=O)c(C(=O)O)cn3C2CC2)CC1,
12.5,NCCCC[C@H](NC(=O)c1ccc(C(=O)N2CCN(c3cc4c(cc3F)c(=O)c(C(=O)O)cn4C3CC3)CC2)cc1)C(=O)NCc1c(Cl)cccc1Cl,
6.25,O=C(CC12CC3CC(CC(C3)C1)C2)N[C@@H](Cc1c[nH]cn1)C(=O)N1CCN(c2cc3c(cc2F)c(=O)c(C(=O)O)cn3C2CC2)CC1,
6.25,CCCCCCCCCNC(=O)[C@H](CCCCN)NC(=O)c1ccc(C(=O)N2CCN(c3cc4c(cc3F)c(=O)c(C(=O)O)cn4C3CC3)CC2)cc1,
6.25,O=C(Cc1ccc(-c2ccccc2)cc1)N[C@@H](Cc1c[nH]cn1)C(=O)N1CCN(c2cc3c(cc2F)c(=O)c(C(=O)O)cn3C2CC2)CC1,

Compound,MIC (Staphylococcus aureus [1]) [µg/mL],also measured
NCCCC[C@H](NC(=O)c1ccc(C(=O)N2CCN(c3cc4c(cc3F)c(=O)c(C(=O)O)cn4C3CC3)CC2)cc1)C(=O)N[C@@H](CCCCN)C(=O)N[C@@H](CCCCN)C(=O)NCc1ccc(-c2ccccc2)cc1,1.56,Activity [2]: Non-toxic; MIC (Staphylococcus aureus [3]): 6.25 µg/mL; MIC (Pseudomonas aeruginosa): 25 µg/mL; MIC (Acinetobacter baumannii): 25 µg/mL; MIC (Enterococcus faecalis): 50 µg/mL; MIC (Enterococcus gallinarum): 50 µg/mL; MIC (Escherichia coli): 25 µg/mL
